Earlier results in US12343320B2, “Intraveneous dofetilide to reduce the risk of developing AF/AFL post coronary bypass surgery” (Hyloris Developments SA, priority 2023, dated 2025).

Legend:
[1] = test system: QTc interval; conditions: average slope; Sedgwick et al 1991
[2] = IV dose of 1.5 μg/kg, restated rounded

In the case of CN(CCOc1ccc(NS(C)(=O)=O)cc1)CCc1ccc(NS(C)(=O)=O)cc1 [dofetilide, Dofetilide], the “QTc change per dofetilide plasma concentration, average” value [1] is listed as 20 ms and the peak level [2] is listed as 1.7 ng/mL.
